Measured values: ChEMBL document CHEMBL5528031, “Synthesis and antitumor activity of cyclopentane-fused anthraquinone derivatives” (Eur J Med Chem, 2024)
Values after ≈ are worked out from the molar mass of the structure shown. Active and inactive are the calls of the source. No cut-off for these calls is given here.

How the values were obtained:
[1] = Drug uptake in human HCT-116 cells assessed as increase in intracellular accumulation at 2 uM measured after 24 hrs by flow cytometry analysis; assay type: ADME, cell-based; conditions: hct-116, 24 h
[2] = Cytotoxicity against hFB-hTERT6 cells assessed as inhibition of cell growth incubated for 72 hrs by MTT assay; assay type: toxicity, cell-based; conditions: human
K562 = test: Antiproliferative activity against human K562 cells assessed as inhibition of cell growth incubated for 72 hrs by MTT assay; assay type: functional, cell-based; conditions: K562, 72 h
DNA [3] = test: Binding affinity to pBR322 plasmid DNA (unknown origin) assessed as DNA intercalation by measuring reduction in electrophoretic shift incubated for 30 mins by EtBr staining based agarose gel electrophoresis; assay type: nucleic-acid assay; conditions: dose 5-20 µM
[4] = Drug localization in lysosome of human HCT-116 cells assessed as appearance of yellow color at 2 uM incubated for 9 hrs by LysoTracker Green staining based fluorescence microscopic analysis; assay type: ADME, subcellular; conditions: hct-116, 9 h
CAPAN-1 = test: Antiproliferative activity against human CAPAN-1 cells assessed as inhibition of cell growth incubated for 72 hrs by MTT assay; assay type: functional, cell-based; conditions: CAPAN-1, 72 h
NCI-H1975 = test: Antiproliferative activity against human NCI-H1975 cells assessed as inhibition of cell growth incubated for 72 hrs by MTT assay; assay type: functional, cell-based; conditions: NCI-H1975, 72 h
Z-138 = test: Antiproliferative activity against human Z138 cells assessed as inhibition of cell growth incubated for 72 hrs by MTT assay; assay type: functional, cell-based; conditions: Z-138, 72 h
[5] = Drug localization in mitochondria of human HCT-116 cells assessed as appearance of yellow color at 2 uM incubated for 9 hrs by MitoTracker deep red staining based fluorescence microscopic analysis; assay type: ADME; conditions: hct-116, 9 h
HCT-116 [6] = test: Induction of oxidative stress in human HCT-116 cells assessed as increase in ROS-positive cells at 10 uM incubated for 2 hrs by Abcam-ROS deep red staining based fluorescence microscopic analysis; assay type: functional, cell-based
HL-60 = test: Antiproliferative activity against human HL-60 cells assessed as inhibition of cell growth incubated for 72 hrs by MTT assay; assay type: functional, cell-based; conditions: HL-60, 72 h
[7] = Solubility of compound in deionized water at pH 6; assay type: physicochemical
LN-229 = test: Antiproliferative activity against human LN-229 cells assessed as inhibition of cell growth incubated for 72 hrs by MTT assay; assay type: functional, cell-based; conditions: LN-229, 72 h
[8] = Antiproliferative activity against human DND41 cells assessed as inhibition of cell growth incubated for 72 hrs by MTT assay; assay type: functional, cell-based; conditions: DND41, 72 h
[9] = Drug uptake in hFB-hTERT6 cells; assay type: ADME, cell-based; conditions: human
Calf thymus DNA [10] = test: Binding affinity to calf thymus DNA assessed as dissociation constant at 10 uM by fluorescence spectroscopy analysis; assay type: nucleic-acid assay, Bos taurus
[11] = Drug uptake in human HCT-116 cells assessed as increase in intracellular accumulation at 2 uM measured after 5 mins by Hoechst 33342 staining based fluorescence confocal microscopic analysis; assay type: ADME, cell-based; conditions: hct-116, 5 min
[12] = Antiproliferative activity against multidrug resistant human K562/4 cells expressing P-gp assessed as inhibition of cell growth incubated for 72 hrs by MTT assay; assay type: functional, cell-based; conditions: K562/4, 72 h
[13] = Octanol/water partition coefficient, logP of compound at pH 7.4 by HPLC analysis; assay type: physicochemical
Calf thymus DNA [14] = test: Binding affinity to calf thymus DNA assessed as binding constant at 10 uM by fluorescence spectroscopy analysis; assay type: nucleic-acid assay; conditions: Bos taurus
[15] = biological target: T1, DNA topoisomerase 1 (Homo sapiens) (UniProt P11387); test: Inhibition of topoisomerase 1 (unknown origin) assessed as reduction in unwinding of supercoiled pBR322 plasmid DNA by measuring reduction in electrophoretic mobility at 5 to 20 uM incubated for 30 mins by EtBr staining based agarose gel electrophoresis; conditions: dose 5-20 µM
T1 sequence (whole entry): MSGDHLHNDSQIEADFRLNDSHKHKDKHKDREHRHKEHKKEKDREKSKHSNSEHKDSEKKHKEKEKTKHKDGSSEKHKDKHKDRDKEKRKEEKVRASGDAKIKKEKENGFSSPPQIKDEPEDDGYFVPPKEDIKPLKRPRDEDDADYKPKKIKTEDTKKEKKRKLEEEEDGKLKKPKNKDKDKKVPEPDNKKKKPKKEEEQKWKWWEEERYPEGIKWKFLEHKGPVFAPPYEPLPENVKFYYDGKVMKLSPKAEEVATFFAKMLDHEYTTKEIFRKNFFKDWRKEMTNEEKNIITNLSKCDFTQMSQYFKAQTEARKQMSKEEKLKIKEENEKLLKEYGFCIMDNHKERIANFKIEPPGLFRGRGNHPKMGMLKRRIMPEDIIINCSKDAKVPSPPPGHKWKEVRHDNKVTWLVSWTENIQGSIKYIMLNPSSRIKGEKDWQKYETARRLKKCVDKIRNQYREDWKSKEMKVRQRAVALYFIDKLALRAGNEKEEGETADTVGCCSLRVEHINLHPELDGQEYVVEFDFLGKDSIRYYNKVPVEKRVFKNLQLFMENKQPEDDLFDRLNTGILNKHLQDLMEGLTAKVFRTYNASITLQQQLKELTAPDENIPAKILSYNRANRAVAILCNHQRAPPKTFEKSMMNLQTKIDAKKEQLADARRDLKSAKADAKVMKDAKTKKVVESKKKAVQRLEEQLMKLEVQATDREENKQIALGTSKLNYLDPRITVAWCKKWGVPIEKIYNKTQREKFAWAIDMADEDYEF

HCT-116 [16] = test: Induction of oxidative stress in human HCT-116 cells assessed as increase in ROS-positive cells at 10 uM incubated for 2 hrs by flow cytometry analysis; assay type: functional, cell-based
HCT-116 [17] = test: Antiproliferative activity against human HCT-116 cells assessed as inhibition of cell growth incubated for 72 hrs by MTT assay; assay type: functional, cell-based; conditions: HCT-116, 72 h
[18] = biological target: T1, DNA topoisomerase 1 (Homo sapiens); test: Inhibition of topoisomerase 1 (unknown origin) assessed as reduction in unwinding of supercoiled pBR322 plasmid DNA by measuring reduction in electrophoretic mobility at 20 uM incubated for 30 mins by EtBr staining based agarose gel electrophoresis
DNA [19] = test: Binding affinity to pBR322 plasmid DNA (unknown origin) assessed as DNA intercalation by measuring reduction in electrophoretic shift at 5 to 20 uM incubated for 30 mins by EtBr staining based agarose gel electrophoresis; assay type: nucleic-acid assay; conditions: dose 5-20 µM
[20] = Drug localization in lysosome of human HCT-116 cells assessed as appearance of yellow color at 2 uM incubated for 24 hrs by LysoTracker Green staining based fluorescence microscopic analysis; assay type: ADME, subcellular; conditions: hct-116, 24 h
[21] = Drug localization in mitochondria of human HCT-116 cells assessed as appearance of yellow color at 2 uM incubated for 24 hrs by MitoTracker deep red staining based fluorescence microscopic analysis; assay type: ADME; conditions: hct-116, 24 h
[22] = Drug localization in nucleus of human HCT-116 cells assessed as appearance of magenta color at 2 uM incubated for 24 hrs by Hoechst 33342 staining based fluorescence microscopic analysis; assay type: ADME, subcellular; conditions: hct-116, 24 h
[23] = Drug uptake in human HCT-116 cells assessed as increase in intracellular accumulation at 2 uM measured after 24 hrs by Hoechst 33342 staining based fluorescence confocal microscopic analysis; assay type: ADME, cell-based; conditions: hct-116, 24 h

N[C@H]1CCN(C(=O)C2Cc3c(O)c4c(c(O)c3C2)C(=O)c2ccccc2C4=O)C1
Drug uptake [1]: Active
IC50 at 72 h [2]: 4200 nM
IC50 (K562): 1900 nM
Activity (DNA [3]): Dose-Dependent Effect
Drug uptake [4]: Active
IC50 (CAPAN-1): 1000 nM
IC50 (NCI-H1975): 2300 nM
IC50 (Z-138): 2500 nM
Drug uptake [5]: Not Active
Activity (HCT-116 [6]): Active
IC50 (HL-60): 2100 nM
solubility [7]: 55 mg/mL (≈ 140 mM)
IC50 (LN-229): 700 nM
IC50 [8]: 2400 nM
Drug uptake [9]: Active
Kd (Calf thymus DNA [10]): 2900 nM
Drug uptake [11]: Active
IC50 [12]: 1900 nM
logD [13]: 1.56
Kb (Calf thymus DNA [14]): 0.35 10^6/M
inhibition [15]: Active
Activity (HCT-116 [16]): Active
IC50 (HCT-116 [17]): 1900 nM

Cc1oc2c(O)c3c(c(O)c2c1C(=O)N1CC[C@H](N)C1)C(=O)c1ccccc1C3=O
inhibition [18]: Active
Activity (DNA [19]): inactive

COc1cccc2c1C(=O)c1c(O)c3c(c(O)c1C2=O)C[C@@](O)(C(=O)CO)C[C@@H]3O[C@H]1C[C@H](N)[C@H](O)[C@H](C)O1 [DOXORUBICIN]
Drug uptake [1]: Active
IC50 (CAPAN-1): 1710 nM
IC50 (NCI-H1975): 620 nM
Drug uptake [20]: Active
IC50 (Z-138): 1590 nM
Activity (HCT-116 [6]): inactive
IC50 (HL-60): 220 nM
IC50 (LN-229): 1820 nM
Drug uptake [21]: Not Active
IC50 [8]: 760 nM
Drug uptake [22]: Active
Drug uptake [9]: Active
Kd (Calf thymus DNA [10]): 700 nM
IC50 [12]: 4200 nM
logD [13]: 0.3
Kb (Calf thymus DNA [14]): 1.4 10^6/M
Activity (DNA [19]): Active
Activity (HCT-116 [16]): inactive
Drug uptake [23]: Active
IC50 (HCT-116 [17]): 300 nM
